Our source for the MIC and Activity values is ChEMBL document CHEMBL1146323, “Design, synthesis, and evaluation of efflux substrate-metal chelator conjugates as potential antimicrobial agents” (2007).

In assay [1] the test system is Bacillus subtilis. Kind of assay: Antimicrobial activity against Bacillus subtilis. It counts as functional.
Assay [2] relates to Escherichia coli. Kind of assay: Antimicrobial activity against Escherichia coli MC4100 assessed as inhibition zone at >2 mg/mL. It counts as functional, organism-based.
In assay [3] the test system is Escherichia coli. Description: Antimicrobial activity against Escherichia coli MC4100. It counts as functional.

≈ marks a conversion by molar mass, not a printed value. Calls of active or inactive are those of the source. No cut-off for these calls is given here.

As usually defined, the MIC is the lowest concentration found to suppress growth. For `O=C(CCCCCN1c2ccccc2Sc2ccccc21)NCc1ccc(CN2CCOCCOCCOCCOCC2)cc1`, in assay [1], inhibition of growth (MIC) required 60 µg/mL (≈ 94.7 µM). The result in assay [2] was inactive.

With `CC1(C)S[C@@H]2[C@H](NC(=O)[C@H](N)c3ccccc3)C(=O)N2[C@H]1C(=O)O` [AMPICILLIN], in assay [1], 25 µg/mL (≈ 71.5 µM) was the least that counted as inhibitory (MIC).

Take `O=C(CN1c2ccccc2Sc2ccccc21)NCc1ccc(CN2CCCNCCNCCCNCC2)cc1`: the results for the MIC in assay [1] and in assay [3] were 7.8 µg/mL (≈ 14 µM) and 2000 µg/mL (≈ 3580 µM), respectively.

Regarding `O=C(CCCCCN1c2ccccc2Sc2ccccc21)OCc1ccc(-c2cc(-c3ccccn3)nc(-c3ccccn3)c2)cc1`, in assay [1], it took 500 µg/mL (≈ 788 µM) to inhibit growth (MIC). Besides, the result in assay [2] was inactive.

Consider `O=C(CCN1c2ccccc2Sc2ccccc21)NCc1ccc(CN(Cc2ccccn2)Cc2ccccn2)cc1`, for which, in assay [1], the MIC was 30 µg/mL (≈ 52.5 µM). Also, in assay [2], the outcome was inactive.

`O=C(CCN1c2ccccc2Sc2ccccc21)NCc1ccc(CN2CCOCCOCCOCCOCC2)cc1`: it took 2000 µg/mL (≈ 3380 µM) to inhibit growth in assay [1] (MIC). Moreover, the outcome in assay [2] was inactive.

For the molecule `O=C(CCN1c2ccccc2Sc2ccc(C(F)(F)F)cc21)NCc1ccc(CN2CCOCCOCCOCCOCC2)cc1`, in assay [1], it took 500 µg/mL (≈ 758 µM) to inhibit growth (MIC). Moreover, the result in assay [2] was inactive.

`O=C(CCCCCN1c2ccccc2Sc2ccccc21)NCc1ccc(CN(Cc2ccccn2)Cc2ccccn2)cc1` gave an MIC in assay [1] of 7.8 µg/mL (≈ 12.7 µM). Besides, the result in assay [2] was inactive.

For the molecule `O=C(CCN1c2ccccc2Sc2ccc(C(F)(F)F)cc21)NCc1ccc(CN(Cc2ccccn2)Cc2ccccn2)cc1`, in assay [1], the MIC stood at 16 µg/mL (≈ 25 µM). In addition, the outcome in assay [2] was inactive.

With `c1ccc2c(c1)Nc1ccccc1S2` [PHENOTHIAZINE], the MIC in assay [1] is 500 µg/mL (≈ 2510 µM).

Take `O=C(CCN1c2ccccc2Sc2ccccc21)OCc1ccc(-c2cc(-c3ccccn3)nc(-c3ccccn3)c2)cc1`: the result in assay [2] was inactive.

In assay [1], `NC[C@H]1O[C@H](O[C@H]2[C@H](O)[C@@H](O[C@H]3O[C@H](CO)[C@@H](O)[C@H](N)[C@H]3O)[C@H](N)C[C@@H]2N)[C@H](O)[C@@H](O)[C@@H]1O` [KANAMYCIN] showed an MIC of under 3 µg/mL.
